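All cell lines were grown in 96-well plates and treated with compound for 48 hours. GI50: concentration for 50% inhibition of growth. TGI marks complete inhibition of growth.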
Legend:
Test in all cases: NCI-60 cell line screen, 48 h
MOLT-4 leukemia = test system: MOLT-4 leukemia
T-47D breast = test system: T-47D breast
HCC-2998 colon = test system: HCC-2998 colon
A498 renal = test system: A498 renal
IGROV1 ovarian = test system: IGROV1 ovarian
OVCAR-3 ovarian = test system: OVCAR-3 ovarian
CAKI-1 renal = test system: CAKI-1 renal
KM12 colon = test system: KM12 colon
A549 NSCLC = test system: A549 NSCLC
SK-MEL-2 melanoma = test system: SK-MEL-2 melanoma
SF-268 CNS = test system: SF-268 CNS
SNB-75 CNS = test system: SNB-75 CNS
HOP-92 NSCLC = test system: HOP-92 NSCLC
SF-295 CNS = test system: SF-295 CNS
786-0 renal = test system: 786-0 renal
RXF 393 renal = test system: RXF 393 renal
SF-539 CNS = test system: SF-539 CNS
SN12C renal = test system: SN12C renal
CCRF-CEM leukemia = test system: CCRF-CEM leukemia
HT29 colon = test system: HT29 colon
NCI-H460 lung = test system: NCI-H460 lung
OVCAR-4 ovarian = test system: OVCAR-4 ovarian
UACC-62 melanoma = test system: UACC-62 melanoma
HS 578T breast = test system: HS 578T breast
HOP-62 NSCLC = test system: HOP-62 NSCLC
DU-145 prostate = test system: DU-145 prostate
SW-620 colon = test system: SW-620 colon
U251 CNS = test system: U251 CNS
HL-60(TB) leukemia = test system: HL-60(TB) leukemia
HCT-15 colon = test system: HCT-15 colon
UACC-257 melanoma = test system: UACC-257 melanoma
SK-MEL-28 melanoma = test system: SK-MEL-28 melanoma
BT-549 breast = test system: BT-549 breast
TK-10 renal = test system: TK-10 renal
NCI-H23 lung = test system: NCI-H23 lung
RPMI-8226 leukemia = test system: RPMI-8226 leukemia
NCI/ADR-RES ovarian = test system: NCI/ADR-RES ovarian
EKVX NSCLC = test system: EKVX NSCLC
UO-31 renal = test system: UO-31 renal
LOX IMVI melanoma = test system: LOX IMVI melanoma
OVCAR-8 ovarian = test system: OVCAR-8 ovarian
COLO 205 colon = test system: COLO 205 colon
PC-3 prostate = test system: PC-3 prostate
SR leukemia = test system: SR leukemia
NCI-H522 lung = test system: NCI-H522 lung
HCT-116 colon = test system: HCT-116 colon
K-562 leukemia = test system: K-562 leukemia
MCF7 breast = test system: MCF7 breast
OVCAR-5 ovarian = test system: OVCAR-5 ovarian
SK-OV-3 ovarian = test system: SK-OV-3 ovarian
MDA-MB-231 breast = test system: MDA-MB-231 breast
ACHN renal = test system: ACHN renal
MALME-3M melanoma = test system: MALME-3M melanoma
SK-MEL-5 melanoma = test system: SK-MEL-5 melanoma
NCI-H226 lung = test system: NCI-H226 lung
SNB-19 CNS = test system: SNB-19 CNS
M14 melanoma = test system: M14 melanoma

Nc1nc2cc(O)ccc2n2cc3c(F)cccc3c12
GI50 (MOLT-4 leukemia): 1.51 µM | TGI (MOLT-4 leukemia): > 100 µM | GI50 (T-47D breast): 5.89 µM | TGI (T-47D breast): > 100 µM | GI50 (HCC-2998 colon): > 20.4 µM | TGI (HCC-2998 colon): > 100 µM | GI50 (A498 renal): 10.1 µM | TGI (A498 renal): > 100 µM | GI50 (IGROV1 ovarian): 1.67 µM | TGI (IGROV1 ovarian): > 100 µM | GI50 (OVCAR-3 ovarian): 6.21 µM | TGI (OVCAR-3 ovarian): > 100 µM | GI50 (CAKI-1 renal): 0.733 µM | TGI (CAKI-1 renal): > 93.1 µM | GI50 (KM12 colon): 0.654 µM | TGI (KM12 colon): > 100 µM | GI50 (A549 NSCLC): 1.27 µM | TGI (A549 NSCLC): > 100 µM | GI50 (SK-MEL-2 melanoma): 3.76 µM | TGI (SK-MEL-2 melanoma): > 100 µM | GI50 (SF-268 CNS): 1.98 µM | TGI (SF-268 CNS): > 100 µM | GI50 (SNB-75 CNS): 1.44 µM | TGI (SNB-75 CNS): 7.34 µM | GI50 (HOP-92 NSCLC): 2.43 µM | TGI (HOP-92 NSCLC): > 85.6 µM | GI50 (SF-295 CNS): 2.46 µM | TGI (SF-295 CNS): > 100 µM | GI50 (786-0 renal): 3.56 µM | TGI (786-0 renal): > 100 µM | GI50 (RXF 393 renal): 1.75 µM | TGI (RXF 393 renal): 26.8 µM | GI50 (SF-539 CNS): 1.31 µM | TGI (SF-539 CNS): > 100 µM | GI50 (SN12C renal): 2.22 µM | TGI (SN12C renal): > 100 µM | GI50 (CCRF-CEM leukemia): 2.28 µM | TGI (CCRF-CEM leukemia): > 100 µM | GI50 (HT29 colon): 4.46 µM | TGI (HT29 colon): > 100 µM | GI50 (NCI-H460 lung): 0.402 µM | TGI (NCI-H460 lung): > 100 µM | GI50 (OVCAR-4 ovarian): 6.81 µM | TGI (OVCAR-4 ovarian): > 100 µM | GI50 (UACC-62 melanoma): 1.23 µM | TGI (UACC-62 melanoma): > 100 µM | GI50 (HS 578T breast): 3.68 µM | TGI (HS 578T breast): > 100 µM | GI50 (HOP-62 NSCLC): 2.14 µM | TGI (HOP-62 NSCLC): > 100 µM | GI50 (DU-145 prostate): 6.38 µM | TGI (DU-145 prostate): > 100 µM | GI50 (SW-620 colon): 0.493 µM | TGI (SW-620 colon): > 100 µM | GI50 (U251 CNS): 2.64 µM | TGI (U251 CNS): > 100 µM | GI50 (HL-60(TB) leukemia): 1.23 µM | TGI (HL-60(TB) leukemia): > 100 µM | GI50 (HCT-15 colon): 0.62 µM | TGI (HCT-15 colon): > 100 µM | GI50 (UACC-257 melanoma): 4.37 µM | TGI (UACC-257 melanoma): > 100 µM | GI50 (SK-MEL-28 melanoma): 4.86 µM | TGI (SK-MEL-28 melanoma): > 100 µM | GI50 (BT-549 breast): 6.92 µM | TGI (BT-549 breast): > 100 µM | GI50 (TK-10 renal): > 20.9 µM | TGI (TK-10 renal): > 100 µM | GI50 (NCI-H23 lung): 3.91 µM | TGI (NCI-H23 lung): > 100 µM | GI50 (RPMI-8226 leukemia): 3.37 µM | TGI (RPMI-8226 leukemia): > 100 µM | GI50 (NCI/ADR-RES ovarian): 0.964 µM | TGI (NCI/ADR-RES ovarian): > 100 µM | GI50 (EKVX NSCLC): 3.38 µM | TGI (EKVX NSCLC): > 100 µM | GI50 (UO-31 renal): 0.917 µM | TGI (UO-31 renal): > 79.8 µM | GI50 (LOX IMVI melanoma): 1.02 µM | TGI (LOX IMVI melanoma): > 100 µM | GI50 (OVCAR-8 ovarian): 3.47 µM | TGI (OVCAR-8 ovarian): > 100 µM | GI50 (COLO 205 colon): 5.86 µM | TGI (COLO 205 colon): > 100 µM | GI50 (PC-3 prostate): 3.67 µM | TGI (PC-3 prostate): > 100 µM | GI50 (SR leukemia): 0.462 µM | TGI (SR leukemia): 32.8 µM | GI50 (NCI-H522 lung): 1.22 µM | TGI (NCI-H522 lung): > 100 µM | GI50 (HCT-116 colon): 0.724 µM | TGI (HCT-116 colon): > 100 µM | GI50 (K-562 leukemia): 0.447 µM | TGI (K-562 leukemia): > 100 µM | GI50 (MCF7 breast): 1.26 µM | TGI (MCF7 breast): > 100 µM | GI50 (OVCAR-5 ovarian): 9.85 µM | TGI (OVCAR-5 ovarian): > 100 µM | GI50 (SK-OV-3 ovarian): 2.37 µM | TGI (SK-OV-3 ovarian): > 100 µM | GI50 (MDA-MB-231 breast): 4.74 µM | TGI (MDA-MB-231 breast): > 100 µM | GI50 (ACHN renal): 1.85 µM | TGI (ACHN renal): > 100 µM | GI50 (MALME-3M melanoma): 3.78 µM | TGI (MALME-3M melanoma): > 100 µM | GI50 (SK-MEL-5 melanoma): 0.334 µM | TGI (SK-MEL-5 melanoma): > 100 µM | GI50 (NCI-H226 lung): 2.97 µM | TGI (NCI-H226 lung): > 100 µM | GI50 (SNB-19 CNS): 2.31 µM | TGI (SNB-19 CNS): > 100 µM | GI50 (M14 melanoma): 1.24 µM | TGI (M14 melanoma): > 100 µM

Source: PubChem BioAssay (NCI)
